Experimental data: publication PMC9090415, “Discovery of small molecule inhibitors of Plasmodium falciparum apicoplast DNA polymerase” (Journal of Enzyme Inhibition and Medicinal Chemistry, 2022)
Like-named read-outs stand apart in the source and are kept apart here.

Columns and labels:
[1] = biological target: P. falciparum apicoplast DNA polymerase (Pf-apPOL) (Plasmodium falciparum, UniProt Q8ILY1); experiment: Fluorescence-based high-throughput DNA polymerase assay (molecular beacon), primary screen and dose-response; type: biochemical; settings: for DNA Pol: 90 min, 10 µM;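 for % inhibition ApPOL 90': test concentration in µM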;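 for % inhibition Apol 40': compound concentration given in µM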;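 for % inhibition apPOL 180': test concentration in µM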
How it was run: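 Single-point screening used 10 µM compound with 20 nM polymerase, 20 nM hairpin substrate and 6 µM dNTPs for 90 min at 25 °C. Confirmatory titrations (2.5–80 µM) followed fluorescence at three times, and IC50 was derived from a fit including a cooperativity term n.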

[2] = biological target: Babesia bovis apicoplast DNA polymerase (Bb-apPOL); experiment: In vitro DNA polymerase inhibition assay, Bb-apPOL; type: biochemical; settings: Table 2
Description: Codon-optimized, exonuclease-deficient Pf-apPOL was overexpressed in E. coli BL21 (DE3) and purified as described. The protein was dialysed against two, 1-liter changes of 20 mM Tris-HCl (pH 8.0), 400 mM NaCl, and 20% glycerol. Plasmodium bergei and Babesia bovis apPOLs (Pb-apPOL and Bb-apPOL, respectively) were codon-optimized, expressed, and purified as for Pf-apPOL[15]. Bacteriophage T4 DNA polymerase was purified as described. The DNA oligonucleotides used to make the high-throughput substrate were obtained from Integrated DNA Technologies. Deoxynucleotides were purchased from Strategene. All other materials came from Fisher Scientific.
We tested the ability of the 102 compounds to kill P. falciparum parasites cultured in human red blood cells. Due to the number of compounds, we used a single inhibitor concentration of 20 µM and performed experiments in triplicate. […] These compounds were then tested in a dose-response format against chloroquine resistant P. falciparum parasites (Dd2) and the resulting data were fit to a sigmoidal growth inhibition curve to determine EC50 values (Figure 5, Table 2). […] Finally, to determine if the compounds were killing the parasites solely via apicoplast disruption, the dose-response curves were also performed with 1 mM isopentylpyrophosphate (IPP) in the growth media (Table 2). […] Very little is known regarding mitochondrial DNA replication in P. falciparum; however, signal sequence identification algorithms have predicted that the other bacterial A-family DNA polymerase residing in P. falciparum is targeted to the mitochondria (PF3D7_0625300)[29]. […] We are currently in the process of cloning and expressing this putative mitochondrial DNA polymerase to determine the effect of these compounds on its activity.

[3] = read-out: IC50 Pf-apPOL, Table 2
[4] = supplemental file 2, sheet IC50 nontoxic compounds, Pf-apPOL

Chain of P. falciparum apicoplast DNA polymerase (Pf-apPOL) (Q8ILY1 entry or part of it): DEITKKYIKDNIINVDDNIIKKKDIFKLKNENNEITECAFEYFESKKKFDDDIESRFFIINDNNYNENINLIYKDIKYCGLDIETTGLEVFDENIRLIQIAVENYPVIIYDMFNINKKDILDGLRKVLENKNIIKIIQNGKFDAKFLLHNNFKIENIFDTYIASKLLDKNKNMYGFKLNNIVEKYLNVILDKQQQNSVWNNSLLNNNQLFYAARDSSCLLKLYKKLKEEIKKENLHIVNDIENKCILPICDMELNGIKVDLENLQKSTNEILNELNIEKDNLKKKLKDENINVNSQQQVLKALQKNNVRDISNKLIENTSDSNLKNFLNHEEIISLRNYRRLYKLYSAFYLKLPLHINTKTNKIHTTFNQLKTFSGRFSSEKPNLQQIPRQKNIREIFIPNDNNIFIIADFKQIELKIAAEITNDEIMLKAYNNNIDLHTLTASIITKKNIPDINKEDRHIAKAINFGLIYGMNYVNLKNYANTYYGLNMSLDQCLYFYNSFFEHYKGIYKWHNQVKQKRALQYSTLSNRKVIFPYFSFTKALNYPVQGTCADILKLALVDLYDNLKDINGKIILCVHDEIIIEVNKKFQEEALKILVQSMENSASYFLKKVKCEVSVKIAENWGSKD

## O=C(O)c1ccc(-c2nc3cc(-c4ccc5nc(-c6ccc(C(=O)O)cc6)[nH]c5c4)ccc3[nH]2)cc1 [Molecule 1]
[1]; [3]
  IC50: 5.9 ± 0.9 µM
[1]; [4]
  IC50: 5.92 µM
[2]
  IC50: 3.7 ± 0.2 µM

## COc1ccc(CNC(=O)Cn2nc3c(c2NC(=O)Cc2cccs2)CSC3)cc1 [Molecule 55]
[1]; [3]
  IC50: 10 ± 2 µM
[1]; [4]
  IC50: 10.5 µM
[2]
  IC50: 1.5 ± 1 µM

## CCOc1nc2cccc(C(=O)OC(C)OC(=O)OC3CCCCC3)c2n1Cc1ccc(-c2ccccc2-c2nnn[nH]2)cc1 (centres unmarked) [Molecule 94]
[1]; [3]
  IC50: 7.6 ± 0.6 µM
[1]; [4]
  IC50: 7.66 µM
[2]
  IC50: 30 ± 3 µM

## OC(C#Cc1ccccc1)c1ccco1 (centres unmarked) [Molecule 95]
[1]; [3]
  IC50: 7.4 ± 0.4 µM
[1]; [4]
  IC50: 7.4 µM
[2]
  IC50: 2.5 ± 0.2 µM

## Cc1ccc(C(=O)/C=C/C=C/C=C/N(C)C)o1 [Molecule 96, CN(/C=C/C=C/C=C/C(=O)c1ccc(o1)C)C]
[1]; "DNA Pol" of the 186 hits list (screen value)
  DNA Pol: 48
[1]; DRC-1, concentration 2.5
  % inhibition Apo pol 10': 21.8998%
  % inhibition Apol 90': 11.0382%
  % inhibition apPOL 180': 1.481%
[1]; DRC-1, concentration 5
  % inhibition Apo pol 10': 52.2247%
  % inhibition Apol 90': 37.6511%
  % inhibition apPOL 180': 22.6897%
[1]; DRC-1, concentration 10
  % inhibition Apo pol 10': 71.8634%
  % inhibition Apol 90': 62.1527%
  % inhibition apPOL 180': 46.7432%
[1]; DRC-1, concentration 20
  % inhibition Apo pol 10': 65.9561%
  % inhibition Apol 90': 58.9151%
  % inhibition apPOL 180': 45.7545%
[1]; DRC-1, concentration 40
  % inhibition Apo pol 10': 68.0612%
  % inhibition Apol 90': 72.0375%
  % inhibition apPOL 180': 68.8362%
[1]; DRC-1, concentration 80
  % inhibition Apo pol 10': 57.2941%
  % inhibition Apol 90': 69.2174%
  % inhibition apPOL 180': 73.043%
[1]; DRC-2, concentration 2.5
  % inhibition Apo pol 5': 1.29%
  % inhibition Apol 40': 3.43%
  % inhibition ApPOL 90': 1%
  % inhibition apPOL 180': -4.64%
[1]; DRC-2, concentration 5
  % inhibition Apo pol 5': 13%
  % inhibition Apol 40': 26%
  % inhibition ApPOL 90': 23%
  % inhibition apPOL 180': 13%
[1]; DRC-2, concentration 10
  % inhibition Apo pol 5': 21%
  % inhibition Apol 40': 44%
  % inhibition ApPOL 90': 44%
  % inhibition apPOL 180': 36%
[1]; DRC-2, concentration 20
  % inhibition Apo pol 5': 2.29%
  % inhibition Apol 40': 42%
  % inhibition ApPOL 90': 47%
  % inhibition apPOL 180': 47%
[1]; DRC-2, concentration 40
  % inhibition Apo pol 5': -21%
  % inhibition Apol 40': 32%
  % inhibition ApPOL 90': 44%
  % inhibition apPOL 180': 51%
[1]; DRC-2, concentration 80
  % inhibition Apo pol 5': -45%
  % inhibition Apol 40': 20%
  % inhibition ApPOL 90': 38%
  % inhibition apPOL 180': 53%
[1]; primary screen value, DNA Pol
  DNA Pol: 48
